Test results from US8314140B2, “4-hydroxythiobenzamide derivatives of drugs” (Antibe Therapeutics Inc., priority 2006, dated 2012).

Legend:
[1] = test system: COX-1 and/or COX-2; assay: Gastric prostaglandin E2 synthesis; assay type: in vivo, rat; details: oral, 3 h; diclofenac 20 mg/kg or equimolar doses; FIG. 9
Method: Briefly, the tissue samples were minced with scissors for 30 min, then placed in 1 mL of sodium phosphate buffer (pH 7.4) and placed in a shaking water bath (37° C.) for 20 min.

[2] = biological target: T1, COX-2 (Rattus norvegicus, UniProt P35355); assay: Rat airpouch assay, exudate PGE2 after zymosan; assay type: in vivo; details: oral 30 min before; diclofenac 3 mg/kg, Compound XVII 4.1 mg/kg; FIG. 12
T1 construct: from tissue; host or cells: rat subcutaneous airpouch exudate, in vivo, zymosan-induced
T1 sequence (P35355 18-604): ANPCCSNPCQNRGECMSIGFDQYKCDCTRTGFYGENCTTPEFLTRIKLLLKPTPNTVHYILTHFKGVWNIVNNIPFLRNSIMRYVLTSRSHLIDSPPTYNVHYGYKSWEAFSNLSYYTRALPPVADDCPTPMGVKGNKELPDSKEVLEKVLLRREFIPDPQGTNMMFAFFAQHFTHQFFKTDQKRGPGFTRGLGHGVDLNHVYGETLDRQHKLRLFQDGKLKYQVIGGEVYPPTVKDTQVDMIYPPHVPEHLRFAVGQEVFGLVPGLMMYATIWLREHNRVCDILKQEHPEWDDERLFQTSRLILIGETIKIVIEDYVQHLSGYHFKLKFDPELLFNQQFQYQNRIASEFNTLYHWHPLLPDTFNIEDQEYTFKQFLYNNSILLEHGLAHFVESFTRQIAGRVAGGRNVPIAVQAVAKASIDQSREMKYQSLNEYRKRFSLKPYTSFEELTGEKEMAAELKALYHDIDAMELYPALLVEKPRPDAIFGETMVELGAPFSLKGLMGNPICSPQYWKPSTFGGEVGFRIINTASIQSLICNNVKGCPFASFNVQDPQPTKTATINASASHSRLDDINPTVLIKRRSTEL
Method: Briefly, a subcutaneous “pouch” is created by repeated injections of air over several days. Once established, inflammation in the pouch can be induced by injection of 1 mL of 1% zymosan. […] Another group of 5 rats was treated with the vehicle, but received an injection of 0.9% sterile saline into the pouch rather than zymosan.
Each group consisted of 5 rats.

## NC(=S)c1ccc(O)cc1 [4-hydroxythiobenzamide]
[1]
  gastric PGE2 synthesis: did not reduce gastric PGE2 synthesis
[2]
  exudate PGE2 in the pouch (COX-2 activity): did not significantly affect COX-2 activity
